Data published in paper PMC5707067, “Farnesyl phenolic enantiomers as natural MTH1 inhibitors from Ganoderma sinense” (Oncotarget, 2017).

Columns and labels:
[1] = CCK8 cytotoxicity assay, Lo2; type: cell-based, human; conditions: human, Lo2 human hepatic cells (normal tissue cell line), CCK8, 48 h
Description: (§1) The growth inhibitory effects of the isolated farnesyl phenolic compounds (1–8) against carcinoma cell lines [human osteosarcoma cells (U2OS), human colorectal carcinoma cells (SW620), human ES-2 ovarian carcinoma cells (ES-2)] and normal tissue cell lines [human hepatic cells (Lo2), African green monkey kidney vero cells (Vero)] were further investigated using CCK8 assay method (Table 3).
(§2) Carcinoma cell lines [human osteosarcoma cells (U2OS), human colorectal carcinoma cells (SW620), human ES-2 ovarian carcinoma cells (ES-2)] and normal tissue cell lines [human hepatic cells (Lo2), African green monkey kidney Vero cells (Vero)] The U2OS, SW620, ES-2, Lo2 and Vero were obtained from ATCC (Manassas, VA, USA). The SW620 and Vero cells were cultured in Roswell Park Memorial Institute medium (RPMI), with 10% fetal bovine serum (Hyclone) and 1% penicillin-streptomycin (Sigma). Lo2, U2OS and ES-2 cells were grown in Dulbecco's modified eagle medium (DMEM), with 10% fetal bovine serum (Hyclone) and 1% penicillin-streptomycin (Sigma). All of these cells were cultured at 37°C in a humidified atmosphere with 5% CO2. For CCK8 assay cytotoxicity evaluation of compounds, all cells were separately plated at a density of 1 × 10^4 cells/well in a 96 well plate. Cells were cultivated at 37°C in 5% CO2 atmosphere for 24 h, then medium in the wells was replaced with fresh medium containing compounds which were diluted in 8 dilution steps covering the range from 200 μM to 1.5625 μM. And DMSO was used as negative control. After 48 h incubation, 10 μL of CCK8 solution was added to each well. After 30 min, the optical density (OD) of each well was measured at wavelength of 450 nm on spectrophotometer. Data were corrected for background (no-cell control) and expressed as a percentage of the value for untreated cells. The IC50 values of the isolated compounds were derived from the mean OD values of the triplicate tests versus the drug concentration curves.

SW620 cells = experiment: Apoptosis analysis (Annexin V/PI flow cytometry); type: cell-based, human; conditions: 24 hours, control group 12.03%
Protocol: The apoptosis of cells induced by compounds was further investigated. SW620 cells were pretreated with series concentration of compound 1 for 24 hours. The number of apoptosis cells was quantified by flow cytometry.
Figure 5 Compound 1 induced DNA damage and hindered the replication of DNA in cancer cells causing cell apoptosis (A) SW620 cells were treated with 0, 50 or 150 μM of compound 1 and then processed for FACS by using Annexin V/propidium iodide staining. (B, C) Immunofluorescence staining analysis of EDU^+ and quantification of EDU^+ in SW620 cells treated with 0, 50 or 150 μM of compound 1. Stained graphs were observed through a fluorescence microscope (× 200 magnification). Bar = 20 μm. Data are shown as mean ± s.d. (n = 3). (D, E, F) Immunofluorescence staining analysis of 53BP1 and quantification of 53BP1 foci formation in SW620 treated for 24 h with 50 μM of compound 1. It was observed through a confocal microscope (× 400 magnification). Bar = 50 μm Data are shown as mean ± s.d. (n = 3). […]
Apoptotic cells were staining with Annexin-V-FITC and Propidium Iodide (PI) (Annexin V-FITC/PI double staining cell apoptosis detection kit) following the manufacturer's protocol. Fluorescence was recorded by flow cytometry using the FACSort (BD Bio sciences).

[2] = test system: human ES-2 ovarian carcinoma cells (ES-2); experiment: CCK8 cytotoxicity assay, ES-2; type: cell-based; conditions: Homo sapiens, Ovarian carcinoma cell; CCK8, 48 h, carcinoma cell line
Description: as §1, §2

[3] = test system: human osteosarcoma cells (U2OS); experiment: CCK8 cytotoxicity assay, U2OS; type: cell-based; conditions: Homo sapiens, U2OS; CCK8, 48 h, carcinoma cell line
Description: as §1, §2

[4] = test system: human colorectal carcinoma cells (SW620); experiment: CCK8 cytotoxicity assay, SW620; type: cell-based; conditions: Homo sapiens, SW-620; CCK8, 48 h, carcinoma cell line
Description: as §1, §2

MTH1 = MTH1 (Homo sapiens, UniProt P36639); experiment: Enzyme inhibition assay (8-oxo-dGTP hydrolysis, HPLC); type: biochemical; design: hexa-histidine (His6) (N, cleaved yes); made in house; host or cells: E. coli BL21 Star; conditions: 8-oxo-dGTP 25 μM, purified MTH1
Protocol: Microscale thermophoresis method (MST) was employed to assay the binding affinity between the compounds and MTH1. This technology can quantify protein-protein interactions or protein-small molecule interactions with high sensitivity through detecting fluorescent changes of molecules during thermophoresis.
To identify the efficacy of the eight compounds, an enzyme inhibition assay was carried out. […] Then the reaction was stop by the addition of 20 μL ice-cold Na2EDTA (50 mM). The reaction mixture was centrifugated at 15000 rpm at 4°C for 10 min. 20 μL of supernatant was injected on an HPLC column (Ultimate AQ-C18 RP-18e, 250 mm × 4.6 mm × 5 μm), and eluted isolate with 100 mM Na2HPO4-NaOH (pH 5.5)/MeOH 95:5 with flow rate 1 mL/min at column room of 30°C. […] Measurements were done in triplet, and IC50 values were calculated to compare the efficiency of various compounds.

[5] = CCK8 cytotoxicity assay, Vero; type: cell-based, African green monkey; conditions: African green monkey, Vero kidney cells (normal tissue cell line), CCK8, 48 h
Description: as §1, §2

For `CO[C@]1(c2cc(O)cc(O)c2)C=C(CCCC(CO)CC/C=C(\C)COC(=O)/C=C/c2ccc(O)cc2)C(=O)O1` (stereo partly drawn) [Compound 1, (5R)-3-{9-[(E)-coumaroyl]-4-hydroxymethyl-8-methyl-7-nonene}-5-(3,5-dihydroxyphenyl)-5-methoxy-2(5H)-furanone], the IC50 at 48 h [1] was 150.3 ± 1.09 µM, the “SW620 cells apoptotic death” value (SW620 cells; 50 μM) was 45.09% and the “SW620 cells apoptotic death” value (SW620 cells; 150 μM) was 91.11%. It also gave an IC50 [2] of 55.5 ± 1.08 µM, an IC50 [3] of 111 ± 1.29 µM and an IC50 [4] of 45 ± 1.23 µM. The IC50 (MTH1) was 10.9 ± 1.04 µM and the IC50 at 48 h [5] was > 300 µM.
